# Experimental data: PubChem BioAssay (NCI)
# “And” between values parts separate entries of the source, which are not always exact repeats. Equal values may be shown once.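 Following 48 hours of exposure in 96-well plates, responses at five concentrations were used to interpolate endpoints linearly. GI50 marks 50% less growth. The concentration for full growth arrest is given as TGI.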
# Columns and labels:
# Experiment in all cases: inhibition of tumour cell growth, NCI panel, 48 h
# BT-549 breast = test system: BT-549 breast
# CAKI-1 renal = test system: CAKI-1 renal
# CCRF-CEM leukemia = test system: CCRF-CEM leukemia
# COLO 205 colon = test system: COLO 205 colon
# DU-145 prostate = test system: DU-145 prostate
# HS 578T breast = test system: HS 578T breast
# OVCAR-8 ovarian = test system: OVCAR-8 ovarian
# SF-268 CNS = test system: SF-268 CNS
# SNB-19 CNS = test system: SNB-19 CNS
# SR leukemia = test system: SR leukemia
Compound,GI50 (BT-549 breast),TGI (BT-549 breast),GI50 (CAKI-1 renal),TGI (CAKI-1 renal),GI50 (CCRF-CEM leukemia),TGI (CCRF-CEM leukemia),GI50 (COLO 205 colon),TGI (COLO 205 colon),GI50 (DU-145 prostate),TGI (DU-145 prostate),GI50 (HS 578T breast),TGI (HS 578T breast),GI50 (OVCAR-8 ovarian),TGI (OVCAR-8 ovarian),GI50 (SF-268 CNS),TGI (SF-268 CNS),GI50 (SNB-19 CNS),TGI (SNB-19 CNS),GI50 (SR leukemia),TGI (SR leukemia)
COc1cc2nc3cc([N+](=O)[O-])ccc3c(NCCCNCC(C)(C)O)c2cc1OC,1.75 µM,3.32 µM,1.95 µM,10.2 µM,0.502 µM,3.98 µM,0.176 µM,0.442 µM,0.324 µM,1.11 µM,0.511 µM,5.39 µM,0.304 µM,1.82 µM,0.308 µM,1.26 µM,0.303 µM,1.41 µM,0.321 µM,3.06 µM
COc1ccc2c(c1)[n+](=O)c(C(=O)/C=C/c1cc(OC)c(OC)c(OC)c1)c(C)n2[O-],12.6 µM,28.9 µM,26.9 µM,> 100 µM,28 µM,> 100 µM,65 µM,> 100 µM,10.7 µM,25.4 µM,11.8 µM,34.5 µM,6.03 µM,30.3 µM,8.15 µM,40.4 µM,14.1 µM,36.5 µM,58.4 µM,> 100 µM
Nc1nc(N)c2nc(CNc3ccc(C(=O)NC(CCCNC(=O)c4ccccc4C(=O)O)C(=O)O)cc3)cnc2n1 (stereo unspecified),,> 100 µM,0.00224 µM,> 100 µM,0.00148 µM,> 100 µM,0.0765 µM,> 100 µM,,> 100 µM,,> 100 µM,0.0015 µM,> 100 µM,,> 100 µM,,> 100 µM,0.000424 µM,> 100 µM
CCCCn1sc(=O)n(Cc2ccc(CNC(=O)OCc3ccc4c(Br)cc(Br)c(O)c4n3)cc2)c1=O,0.406 µM,> 100 µM,0.609 µM,> 100 µM,0.353 µM,> 100 µM,24.8 µM,> 100 µM,0.4 µM,,0.959 µM,> 100 µM,0.415 µM,> 81.4 µM,1.05 µM,> 100 µM,2.66 µM,> 100 µM,0.404 µM,> 100 µM
C#CCOc1cccc(Nc2ncnc3ccc(NC(=O)CCl)cc23)c1,1.66 µM,10.1 µM,0.22 µM,12.7 µM,0.0725 µM,> 33.6 µM,0.463 µM,16.8 µM,0.73 µM,14.1 µM,4.12 µM,> 100 µM,0.353 µM,> 65 µM,0.674 µM,10.3 µM,1.88 µM,81.9 µM,0.0743 µM,17.9 µM
CC(=O)[O][Hg][c]1ccccc1,0.453 µM,1.66 µM,0.964 µM,2.89 µM,0.147 µM,0.494 µM,0.65 µM,1.67 µM,1.25 µM,2.72 µM,0.289 µM,1.67 µM,0.921 µM,3.96 µM,1.14 µM,2.64 µM,1.46 µM,3.05 µM,0.143 µM,0.537 µM
O=C(O)C1(Cc2cccc(Nc3nccs3)n2)CCC(Oc2cccc(Cl)c2F)CC1 (stereo unspecified),14.6 µM,32.1 µM,12.4 µM,38.8 µM,1.23 µM,> 55.1 µM,0.876 µM,19.3 µM,14.4 µM,32.3 µM,10.4 µM,64 µM,18.9 µM,> 100 µM,25.1 µM,> 100 µM,20 µM,73.9 µM,0.419 µM,50.3 µM
O=C1C(Cl)=C(Nc2cccc(O)c2)C(=O)N1c1ccccc1Cl,21.8 µM,75.4 µM,40.3 µM,> 100 µM,1.48 µM,19.6 µM,30.3 µM,> 100 µM,30.9 µM,> 100 µM,21 µM,77.7 µM,32.1 µM,> 100 µM,13.6 µM,60.6 µM,40.6 µM,> 100 µM,7 µM,40.2 µM
C/C(Cc1ccc(Cl)cc1)=C(/c1ccc(Cl)cc1)c1ccc(OCCN(C)C)cc1,4.95 µM,10 µM,4.63 µM,8.98 µM,4.17 µM,12.9 µM,1 µM,4.53 µM,4.74 µM,9.44 µM,4.72 µM,11 µM,5.75 µM,13.7 µM,5.01 µM,10.1 µM,5.04 µM,9.62 µM,0.991 µM,3.81 µM
COc1ccc(C(=O)COc2cccc(/C=C3\CSc4ccc(C)cc4C3=O)c2)cc1,27.6 µM,> 100 µM,28.7 µM,> 100 µM,2.76 µM,> 100 µM,31.8 µM,> 100 µM,64.5 µM,> 100 µM,40.4 µM,> 100 µM,5.89 µM,> 100 µM,19.3 µM,72.9 µM,> 100 µM,> 100 µM,1.98 µM,5.25 µM
COc1ccccc1S(=O)(=O)Nc1ccc2c(c1)CN(C)C(=O)N2,9.98 µM and 26.3 µM,> 100 µM,0.994 µM and 3 µM,> 100 µM,5.31 µM and 7.05 µM,> 100 µM,2.61 µM and 2.8 µM,> 100 µM,67.4 µM and 33.1 µM,> 100 µM,2.53 µM and 2.23 µM,> 100 µM,10.1 µM and 10.8 µM,> 100 µM,20 µM and 24.7 µM,> 100 µM,7.3 µM and 5.07 µM,> 100 µM,2.4 µM and 3.49 µM,> 100 µM
O=[N+]([O-])c1ccc(Sc2c3ccccc3nc3ccccc23)nc1,,27.3 µM,,11.8 µM,,5.76 µM,,6.39 µM,,14.3 µM,,60.7 µM,,> 49.3 µM,,19 µM,,40.5 µM,,> 21.3 µM
CN(C[C@@H]1COCCO1)S(=O)(=O)Nc1ccc2ccc3ncc(-c4cnn(C)c4)cc3c(=O)c2c1,2.01 µM,> 100 µM,1.94 µM,> 27.4 µM,5.65 µM,> 100 µM,19.3 µM,> 100 µM,6.86 µM,> 100 µM,1.35 µM,6.16 µM,5.04 µM,> 100 µM,4.26 µM,> 100 µM,12.5 µM,> 100 µM,3.05 µM,> 100 µM
C=C(C)[C@@H]1CC[C@]2(COC3CCCCO3)CC[C@]3(C)[C@H](CC[C@@H]4[C@@]5(C)C=C(C=O)C(=O)C(C)(C)[C@@H]5CC[C@]43C)[C@@H]12 (stereo partly specified),1.42 µM,2.78 µM,1.34 µM,2.61 µM,0.386 µM,2.57 µM,1.62 µM,3.48 µM,1.57 µM,2.92 µM,1.39 µM,3.77 µM,1.49 µM,3.86 µM,1.34 µM,3.05 µM,1.35 µM,2.89 µM,1.52 µM,6.78 µM
Nc1c(C(=O)Nc2ccccc2F)sc2nc3c(cc12)C(=O)CCC3,,> 52.5 µM,1.76 µM,> 100 µM,3.46 µM,> 100 µM,0.696 µM,6.81 µM,1.81 µM,> 28.6 µM,2.01 µM,> 25.5 µM,13.8 µM,> 100 µM,> 30.6 µM,> 100 µM,2.6 µM,> 100 µM,1.68 µM,> 100 µM
CCC1CCc2nc3sc(C(=O)Nc4ccccc4C)c(N)c3cc2C1 (stereo unspecified),0.558 µM,> 100 µM,0.451 µM,> 100 µM,0.331 µM,> 100 µM,0.451 µM,> 100 µM,0.485 µM,> 100 µM,0.514 µM,> 100 µM,> 100 µM,> 100 µM,0.706 µM,> 100 µM,0.911 µM,> 100 µM,0.196 µM,14.6 µM
Cn1c(=S)c2[nH]c(SCCN3CCCC3)nc2n(C)c1=O,,> 100 µM,,> 100 µM,,> 100 µM,,> 100 µM,,> 100 µM,,> 100 µM,,> 100 µM,,> 100 µM,,> 100 µM,,> 100 µM
N#Cc1ccc(C(c2ccc(C#N)cc2)n2cncn2)cc1,,> 5000 µM,> 5000 µM,> 5000 µM,> 5000 µM,> 5000 µM,> 5000 µM,> 5000 µM,> 5000 µM,> 5000 µM,1540 µM,> 5000 µM,,> 5000 µM,> 5000 µM,> 5000 µM,> 5000 µM,> 5000 µM,> 5000 µM,> 5000 µM
CCN1C(=O)N(c2ccccc2)C2NN=c3s/c(=C4\C(=O)N(C(C)C)c5ccccc54)c(=O)n3C21 (stereo unspecified),1.8 µM,18.9 µM,0.661 µM,8.06 µM,1.16 µM,> 100 µM,0.54 µM,24.5 µM,1.41 µM,> 29.4 µM,1.06 µM,21.8 µM,2.05 µM,> 100 µM,2.1 µM,> 100 µM,2.1 µM,> 100 µM,0.553 µM,> 100 µM
